Test results from paper PMC6268586, “Effect of Wine and Vinegar Processing of Rhizoma Corydalis on the Tissue Distribution of Tetrahydropalmatine, Protopine and Dehydrocorydaline in Rats” (Molecules, 2012).
Where two headings read alike, the source gives them in different places.

Experiment: Tissue distribution of THP, DHC and protopine in rat tissues after gastric gavage administration (HPLC-UV, non-compartmental analysis)
Type: in vivo, Wistar male rats
Settings: for AUC(0-t) / Cmax / MRT / Tmax: male, Wistar, po, 6.45 mg/kg; for AUC(0-t): read-out: AUC0–24 h of THP; for Cmax: read-out: Cmax of THP; for MRT: read-out: MRT of THP; for Tmax: read-out: Tmax of THP
Procedure: The experimental protocol was approved by the University's Animal Ethics Committee. […] Rats had unlimited access to water. Standard food was given until 12 h before the experiments. Rhizoma Corydalis was processed according to Pharmacopoeia of Chinese Medicine and National Guideline of Traditional Chinese Medicinal Plants Processing. Briefly, fresh Rhizoma Corydalis was boiled in water till the pith turn light brown color. Cooked rhizome was sliced into pieces (4 mm, diameter) and dried at 25 °C. Dried slices were mixed with edible vinegar (100:20, rhizome/vinegar, w/v) or yellow wine (100:10, rhizome/wine, w/v) and the slices allowed to completely absorb the vinegar or wine. The soaked slices were then stir-fried in a metallic pan over a low flame till they were completely dry. The processed Rhizoma Corydalis was added with 70% ethanol (1:30 w/v) and sonicated for 1 h at room temperature. The extract was then concentrated to remove the ethanol residue and stored at 4 °C for further use. […] The ethanol extract of the unprocessed Rhizoma Corydalis and THP, DHC and protopine pure compound were used as the controls. Three hundred and sixty healthy rats were used in total and are divided into six groups (Group 1-6, sixty rats per group). Drugs were administrated by gastric gavage method. In order to keep the dose of THP, DHC and protopine constant in each group, the amount of ethanol extract of Rhizoma Corydalis administrated was normalized based on the dose of protopine pure compound used. The dose of THP and DHC pure compound administrated was same with that in the ethanol extract of Rhizoma Corydalis. The details were listed below. […] Rats were administrated with the 70% ethanol extract of unprocessed Rhizoma Corydalis at a dose of 17.75 g extract/kg body weight. […] Rats received the extract of vinegar-processed Rhizoma Corydalis at a dose of 15 g extract/kg rat body weight. Group 3: Rats were administrated with the extract of wine processed Rhizoma Corydalis at a dose of 15.78 g extract/kg body weight. […] Rats received THP pure compound at a dose of 6.45 mg/kg body weight. Group 6: Rats were administrated 26.10 mg of DHC pure compound/kg body weight. […] Brian tissue was further dissected into six parts: cerebrum, cerebellum, diencephalons, brain stem, hippocampus and striatum. All the tissue samples were rinsed with ice-old saline and stored at -20 °C until extraction. Tissue samples were homogenized in three volumes of ice-cold biological saline and centrifuged for 10 min at 10,000 g and 4 °C. An aliquot of the supernatant (0.5 mL) was collected. Liquid-liquid extraction was used to extract THP, DHC and protopine. One hundred microliter of 1.0 μg/mL nuciferin (internal standard) was mixed with 0.5 mL aliquots of the supernatant. […] The supernatant was evaporated completely under the nitrogen stream in a 60 °C water bath. The residue was redissolved in 100 μL of methanol. A CoMetro HPLC system (CoMetro Technology Ltd, South […], NJ, USA) with 6000 PVW detector UV-VIS detector was used. […] Ltd., Liaoning, China). Other chromatographic conditions were: column temperature, 35 °C; mobile phase, acetonitrile-0.1% phosphoric acid (pH 3.0) (30:70 v/v); flow rate, 1 mL/min; wavelength, 280 nm. Pharmacokinetic parameters were estimated by non-compartmental analysis using Equiv Test/PK (Statistical Solutions Ltd., Saugus, MA, USA). The maximum concentration (Cmax) and the time to reach the maximum concentration (Tmax) were directly obtained from the observed value. All data were represented as mean ± SD. Comparison of values between groups was performed using one-way ANOVA followed by Tukey's test for comparisons among four groups.

COc1cc2c(cc1OC)[C@@H]1Cc3ccc(OC)c(OC)c3CN1CC2 [THP, tetrahydropalmatine]
AUC(0-t) (rat brainstem): 1490 ± 340 ng·h/mL
Cmax (rat brainstem): 370 ± 110 ng/mL
MRT (rat brainstem): 7.53 ± 0.26 h
Tmax (rat brainstem): 0.25 h
AUC(0-t) (rat cerebellum): 990 ± 220 ng·h/mL
Cmax (rat cerebellum): 150 ± 30 ng/mL
MRT (rat cerebellum): 9.2 ± 0.61 h
Tmax (rat cerebellum): 0.26 ± 0.02 h
AUC(0-t) (rat cerebrum): 860 ± 200 ng·h/mL
Cmax (rat cerebrum): 250 ± 72 ng/mL
MRT (rat cerebrum): 8 ± 0.25 h
Tmax (rat cerebrum): 0.26 ± 0.01 h
AUC(0-t) (rat diencephalons): 1670 ± 380 ng·h/mL
Cmax (rat diencephalons): 460 ± 130 ng/mL
MRT (rat diencephalons): 7.7 ± 0.28 h
Tmax (rat diencephalons): 0.27 ± 0.04 h
AUC(0-t) (rat heart): 1430 ± 320 ng·h/mL
Cmax (rat heart): 600 ± 180 ng/mL
MRT (rat heart): 4.83 ± 0.13 h
Tmax (rat heart): 0.25 h
AUC(0-t) (rat hippocampus): 1790 ± 400 ng·h/mL
Cmax (rat hippocampus): 470 ± 130 ng/mL
MRT (rat hippocampus): 7.04 ± 0.23 h
Tmax (rat hippocampus): 0.24 ± 0.05 h
AUC(0-t) (rat kidney): 6270 ± 1430 ng·h/mL
Cmax (rat kidney): 2050 ± 570 ng/mL
MRT (rat kidney): 4.37 ± 0.1 h
Tmax (rat kidney): 0.33 ± 0.09 h
AUC(0-t) (rat liver): 5570 ± 2600 ng·h/mL
Cmax (rat liver): 7840 ± 1740 ng/mL
MRT (rat liver): 3.99 ± 0.08 h
Tmax (rat liver): 0.21 ± 0.01 h
AUC(0-t) (rat lung): 5930 ± 1320 ng·h/mL
Cmax (rat lung): 1530 ± 450 ng/mL
MRT (rat lung): 5.34 ± 0.15 h
Tmax (rat lung): 0.26 ± 0.08 h
AUC(0-t) (rat spleen): 3270 ± 740 ng·h/mL
Cmax (rat spleen): 1540 ± 450 ng/mL
MRT (rat spleen): 4.34 ± 0.09 h
Tmax (rat spleen): 0.23 h
AUC(0-t) (rat striatum): 2470 ± 570 ng·h/mL
Cmax (rat striatum): 720 ± 210 ng/mL
MRT (rat striatum): 7.69 ± 0.26 h
Tmax (rat striatum): 0.21 ± 0.03 h
elimination of THP from the tissues (rat tissues): rarely found after 8 h
time after administration at which THP was detected in all the tissues examined (rat tissues): ≤ 5 min
